Legend:
platelets [1] = experiment: agonist-induced platelet granule secretion (P-selectin expression, flow cytometry); type: cell-based, human; conditions: for effect on PMA-induced platelet activation: in words
Procedure: In order to assay platelet activation by cell surface marker expression, fresh PRP is isolated from donors who have not ingested aspirin for two weeks prior to donation. PRP (40 μl) is incubated with known or suspected inhibitor in DMSO or DMSO alone for 15 min. The sample is then incubated with the indicated agonist (e.g., SFLLR) for 10 min. Following incubation of the sample with the indicated agonist, 10 μl of reaction mixture is transferred to 5 μl of phycoerythrin (PE)-conjugated AC 1.2 anti-P-selectin antibody (for assessment of P-selectin surface expression) or fluorescein isothiocyanate (FITC)-conjugated PAC-1 antibody (for assessment of GPIIbIIIa activation). PBS (500 μl) is added to the sample after a 20 min incubation and the platelets are analyzed immediately by flow cytometry. Flow cytometry can be performed using, for example, a Becton-Dickinson FACSCalibur flow cytometer or its equivalent. Fluorescent channels are set at logarithmic gain. Ten thousand particles are acquired for each sample. A 530/30 band pass filter is used for FL-1 fluorescence. A 585/42 band pass filter is used for FL-2 fluorescence. FITC is measured in the FL-1 channel and PE is measured in the FL-2 channel. Data are analyzed using, for example, CellQuest software on a Macintosh PowerPC, or their equivalents. […]
Each of the compounds was tested for inhibition of platelet activation in response to the agonists SFLLR (a thrombin mimic), U46619 (a thromboxane A2 mimic), ADP and the phorbol ester PMA.
Compounds were also tested by flow cytometry for the inhibition of SFLLR-induced GPIIbIIIa activation and P-selectin expression. In these experiments, freshly obtained PRP was prepared from healthy volunteers who had not ingested aspirin for two weeks prior to donation. Forty μl of PRP was incubated with inhibitor in DMSO or DMSO alone for 15 min. The sample was then incubated with the indicated agonist for 10 min. Following incubation of the sample with the indicated agonist, 10 μl of reaction mixture was transferred to 5 μl of PE-conjugated AC1.2 anti-P-selectin antibody (for assessment of P-selectin surface expression) or FITC-conjugated PAC-1 antibody (for assessment of GPIIbIIIa activation). PBS (500 μl) was added to the sample after a 20 min incubation and the platelets were analyzed immediately by flow cytometry. Flow cytometry was performed using a Becton-Dickinson FACSCalibur flow cytometer. Fluorescent channels were set at logarithmic gain. Ten thousand particles were acquired for each sample. A 530/30 band pass filter was used for FL-1 fluorescence. A 585/42 band pass filter was used for FL-2 fluorescence. FITC was measured in the FL-1 channel and PE was measured in the FL-2 channel. Data were analyzed using CellQuest software on a MacIntosh PowerPC.
Compound was tested for its ability to inhibit SFLLR-, U46619-, ADP-, PMA-, and collagen I-induced platelet α-granule secretion. In these assays, platelets were incubated with increasing doses of compound for 30 minutes. The platelets were then exposed to a maximally stimulatory dose of the indicated agonist. P-selectin surface expression was analyzed by flow cytometry using phycoerythrin-anti-P-selectin to monitor for α-granule secretion.

platelet GPIIbIIIa = experiment: SFLLR-induced GPIIbIIIa activation (PAC-1 antibody, flow cytometry); type: cell-based, human; conditions: in words
Procedure: In order to assay platelet activation by cell surface marker expression, fresh PRP is isolated from donors who have not ingested aspirin for two weeks prior to donation. PRP (40 μl) is incubated with known or suspected inhibitor in DMSO or DMSO alone for 15 min. The sample is then incubated with the indicated agonist (e.g., SFLLR) for 10 min. Following incubation of the sample with the indicated agonist, 10 μl of reaction mixture is transferred to 5 μl of phycoerythrin (PE)-conjugated AC 1.2 anti-P-selectin antibody (for assessment of P-selectin surface expression) or fluorescein isothiocyanate (FITC)-conjugated PAC-1 antibody (for assessment of GPIIbIIIa activation). PBS (500 μl) is added to the sample after a 20 min incubation and the platelets are analyzed immediately by flow cytometry. […] A 530/30 band pass filter is used for FL-1 fluorescence. A 585/42 band pass filter is used for FL-2 fluorescence. FITC is measured in the FL-1 channel and PE is measured in the FL-2 channel. Data are analyzed using, for example, CellQuest software on a Macintosh PowerPC, or their equivalents.
Compounds were also tested by flow cytometry for the inhibition of SFLLR-induced GPIIbIIIa activation and P-selectin expression. […] PBS (500 μl) was added to the sample after a 20 min incubation and the platelets were analyzed immediately by flow cytometry. […] A 530/30 band pass filter was used for FL-1 fluorescence. […]

platelets [2] = experiment: platelet aggregation (aggregometer); type: cell-based, human; conditions: in words
Procedure: Platelet aggregation profiling is a standard methodology, generally performed with an instrument adapted for that express purpose, for example, a Platelet Aggregation Profiler (BioData, Horsham, Pa.). The assays can generally be performed according to the instructions of the manufacturer. As exemplary conditions, 400 μl of PRP are incubated with inhibitor for 15 minutes at room temperature. The sample is then incubated for 3 minutes at 37° C. in the Platelet Aggregation Profiler. The instrument is calibrated with platelet poor plasma serving as a blank. A baseline tracing is established by monitoring the light transmittance of PRP being stirred at 1200 rpm. Aggregation is initiated by the addition of SFLLR (200 μM) and the percent of platelet aggregation is measured by the change in light transmittance for 6 minutes following addition of SFLLR.

[3] = tested on: platelet F-actin assembly; experiment: F-actin assembly (FITC-phalloidin, flow cytometry); type: cell-based; conditions: in words
Description: To determine whether or not the effects of the pyridazinone compound were limited to inhibition of alpha-granule secretion, the ability of the compound to inhibit F-actin assembly and aIIbβ3 activation was examined. F-actin assembly was detected using FITC-phalloidin and quantified by flow cytometry (Winokur et al., 1995, Blood 85, 1796–804; Oda et al., 1992, Blood 79, 920–7).

CC1CC(=O)NN=C1c1ccc(N)c([N+](=O)[O-])c1 (stereo not drawn) [6-(4-Amino-3-nitro-phenyl)-5-methyl-4,5-dihydro-2H-pyridazin-3-one]
IC50s for ADP- and collagen-induced granule release less potent than SFLLR/U46619 (platelets [1]; ADP, collagen vs SFLLR, U46619): at least 25 fold | effect on PMA-induced platelet activation (platelets [1]; listed as Structure 8): did not inhibit | effect on PMA-induced platelet activation (platelets [1]; listed as pyridazinone compound): No inhibition | SFLLR-induced αIIbβ3 activation measured using PAC-1 antibodies (platelet GPIIbIIIa): inhibited | inhibition of SFLLR-induced platelet aggregation (platelets [2]): potent inhibitor | SFLLR-induced F-actin assembly [3]: interferes with SFLLR-induced cytoskeleton rearrangement
